The subject of this assay is TDP-43 aggregation in PC12 cells stably expressing GFP-tagged mutant TDP-43 (TDP-43^Q33IK::eGFP). Nature of the assay: In vitro efficacy assay: inhibition of TDP-43 inclusions, concentration-response, fluorescence microscopy. The settings on record: 1 hour pre-treatment, 15 μM sodium arsenite for 23 hours, 10-point dose response curve. The assay is classed as cell-based. In a few lines: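 PC12 cells stably expressing TDP-43^Q33IK::eGFP pre-treated 1 h with compound, then stressed with 15 μM sodium arsenite for 23 h. Fluorescence microscopy gave the fraction of GFP-positive cells bearing aggregates; IC50 from concentration-response, reported in bins: A <100 nM, B 100–500 nM, C 500 nM–2 μM, D >2 μM.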

The mark [1] stands for this setting: Rattus norvegicus, PC-12, PC12 cells.

From patent publication US11542233B2, “Compounds, compositions and methods of use” (Aquinnah Pharmaceuticals, Inc., priority 2016, dated 2023) come the findings set out here.

For orientation: IC50 means the concentration that gives 50% inhibition.

Consider `CCN(C(=O)c1nc2ccccc2[nH]1)[C@H]1CCC[C@@H](NCc2ccccc2)C1` [Compound 400, N-((1S,3R)-3-(benzylamino)cyclohexyl)-N-ethyl-1H-benzo[d]imidazole-2-carboxamide], for which, under setting [1], the IC50 was below 100 nM.

With `C#CCOc1ccc(CN[C@@H]2CCC[C@H](N(CC)C(=O)c3nc4c(N)cccc4[nH]3)C2)cc1` [Compound 567], the IC50 under setting [1] is below 100 nM. The same measure, in the same setting: as for `CCN(C(=O)c1nc2cc(F)ccc2[nH]1)[C@H]1CCC[C@@H](NCc2oc3ccccc3c2C)C1` [Compound 524], the figure is below 100 nM. Turning to `CCN(C(=O)c1cc2cc(C#N)ccc2[nH]1)[C@H]1CCC[C@@H](NCc2cccc(F)c2)C1` [Compound 534], the IC50 under setting [1] was below 100 nM.

Consider `CCN(C(=O)c1cc2ccccc2[nH]1)[C@H]1COC[C@H](N[C@@H]2CCc3ccccc32)C1` [Compound 506, N-((3R,5R)-5-(((R)-2,3-dihydro-1H-inden-1-yl)amino)tetrahydro-2H-pyran-3-yl)-N-ethyl-1H-indole-2-carboxamide], for which the IC50 under setting [1] fell in the range of 500 to 2000 nM. Take `C#CCOc1ccc(C(=O)c2ccc(CN[C@@H]3CCC[C@H](N(CC)C(=O)c4cc5ncccc5[nH]4)C3)cc2)cc1` [Compound 463, N-ethyl-N-((1S,3R)-3-((4-(4-(prop-2-yn-1-yloxy)benzoyl)benzyl)amino)cyclohexyl)-1H-pyrrolo[3,2-b]pyridine-2-carboxamide]: under setting [1], the concentration for half-maximal inhibition (IC50) is below 100 nM. Still for that read-out and setting: with `CCN(C(=O)c1cc2ccccc2[nH]1)[C@H]1CCC[C@@H](N2CCc3ccccc3C2)C1` [Compound 115] the figure was 500 to 2000 nM; with `CCN(C(=O)c1nc2cc(C#N)ccc2[nH]1)[C@H]1CCC[C@@H](NCc2oc3ccccc3c2C#N)C1` [Compound 520], below 100 nM; with `CCN(C(=O)c1cc2ncccc2[nH]1)[C@H]1CCC[C@@H](NCc2ccccc2)C1` [Compound 151], below 100 nM. In the case of `CCN(C(=O)c1cc2ccccc2[nH]1)[C@H]1CCC[C@@H](NCc2oc3ccccc3c2C)C1` [Compound 449], the IC50 under setting [1] was below 100 nM. The same measure, in the same setting: as for `CCN(C(=O)c1nc2ccccc2[nH]1)[C@H]1CCC[C@@H](NCc2cc3ccccc3o2)C1` [Compound 479], the figure is below 100 nM; as for `O=C(c1cc2ccccc2[nH]1)N(CC(F)(F)F)[C@H]1CCC[C@@H](NCC2CCOCC2)C1` [Compound 183], above 2000 nM; as for `CCN(C(=O)c1cc2ccccc2[nH]1)[C@H]1CCC[C@@H](NCc2ccccc2)C1` [Compound 100, N-((1S,3R)-3-(benzylamino)cyclohexyl)-N-ethyl-1H-indole-2-carboxamide], below 100 nM. The same measure, in the same setting: as for `O=C(c1cc2ccccc2[nH]1)N(CC(F)(F)F)[C@H]1CCC[C@@H](NCc2cccc(F)c2)C1` [Compound 170, N-((1S,3R)-3-((3-fluorobenzyl)amino)cyclohexyl)-N-(2,2,2-trifluoroethyl)-1H-indole-2-carboxamide], the figure is below 100 nM. With `CCN(C(=O)c1nc2ccccc2[nH]1)[C@H]1CCC[C@@H](NCc2cc3ncccc3o2)C1` [Compound 491], the IC50 under setting [1] is below 100 nM.

With `CCN(C(=O)c1cc2ccccc2[nH]1)[C@@H]1CCC[C@@H](NCc2ccccc2)C1` [Compound 104], the IC50 under setting [1] lay in the range of 500 to 2000 nM. The same measure, in the same setting: as for `CCN(C(=O)c1cc2cc(F)ccc2[nH]1)[C@H]1CCC[C@@H](NCc2oc3ccccc3c2C)C1` [Compound 548], the figure is below 100 nM; as for `CCN(C(=O)c1cc2ccccc2[nH]1)[C@H]1CCC[C@@H](N[C@H]2CCc3ccccc32)C1` [Compound 120], 500 to 2000 nM; as for `CCN(C(=O)c1cc2ccccc2[nH]1)[C@H]1CCC[C@H](NC2(c3ccccc3)CC2)C1` [Compound 421], above 2000 nM. Still for that read-out and setting: as for `CCN(C(=O)c1nc2cc(C#N)ccc2[nH]1)[C@H]1CCC[C@@H](NCc2cc3ccccc3o2)C1` [Compound 517], the figure is below 100 nM. For the molecule `CCN(C(=O)c1cc2ccccc2[nH]1)[C@H]1COC[C@H](NCc2ccccc2)C1` [Compound 301, N-((3R,5R)-5-(benzylamino)tetrahydro-2H-pyran-3-yl)-N-ethyl-1H-indole-2-carboxamide], under setting [1], the 50% inhibitory concentration (IC50) is above 2000 nM. With `C#CCOc1cccc(CN[C@@H]2CCC[C@H](N(CC)C(=O)c3nc4cc([N+](=O)[O-])ccc4[nH]3)C2)c1` [Compound 563], under setting [1], the IC50 is below 100 nM. Same read-out and setting: as for `CCN(C(=O)c1nc2cc(C#N)ccc2[nH]1)[C@H]1CCC[C@@H](NCc2cccc(F)c2)C1` [Compound 516, 5-cyano-N-ethyl-N-((1S,3R)-3-((3-fluorobenzyl)amino)cyclohexyl)-1H-benzo[d]imidazole-2-carboxamide], the figure is below 100 nM; as for `C#CCCC1(CCOc2cccc(CN[C@@H]3CCC[C@H](N(CC)C(=O)c4cc5ccccc5[nH]4)C3)c2)N=N1` [Compound 426], below 100 nM; as for `CCN(C(=O)c1cc2ccccc2[nH]1)[C@H]1CCC[C@@H](NCc2cc(C)on2)C1` [Compound 462], below 100 nM. The same measure, in the same setting: with `CCN(C(=O)c1cc2ccccc2[nH]1)[C@@H]1CCC[C@H](NCc2ccccc2)C1` [Compound 103] the figure was 500 to 2000 nM; with `C#CCCC1(CCOc2ccc(CN[C@@H]3CCC[C@H](N(CC)C(=O)c4cc5ccccc5[nH]4)C3)cc2)N=N1` [Compound 425, N-((1S,3R)-3-((4-(2-(3-(but-3-yn-1-yl)-3H-diazirin-3-yl)ethoxy)benzyl)amino)cyclohexyl)-N-ethyl-1H-indole-2-carboxamide], 100 to 500 nM. Regarding `CCN(C(=O)c1cc2ccccc2[nH]1)[C@@H]1CCC[C@@H](N[C@H]2CCc3ccccc32)C1` [Compound 113], the IC50 under setting [1] fell in the range of 500 to 2000 nM. Consider `CCN(C(=O)c1cc2ccccc2[nH]1)[C@H]1CCC[C@@H](NCc2ccccn2)C1` [Compound 127], for which, under setting [1], the IC50 was below 100 nM.

As for `CCN(C(=O)c1cc2c([nH]1)CCOC2)[C@H]1CCC[C@@H](NCc2ccccc2)C1` [Compound 503], the IC50 under setting [1] lay in the range of 100 to 500 nM. For the molecule `CCN(C(=O)c1cc2ccccc2[nH]1)[C@H]1CCC[C@@H](NC2(c3ccccc3)CC2)C1` [Compound 419], the IC50 under setting [1] was 100 to 500 nM. As to `CCN(C(=O)c1cc2ccccc2[nH]1)[C@H]1CCC[C@@H](NCCC2CC2)C1` [Compound 117], the IC50 under setting [1] is below 100 nM.

For the molecule `CCN(C(=O)c1cc2ncccc2[nH]1)[C@H]1CCC[C@@H](NCc2cccc(N=[N+]=[N-])c2)C1` [Compound 406, N-((1S,3R)-3-((3-azidobenzyl)amino)cyclohexyl)-N-ethyl-1H-pyrrolo[3,2-b]pyridine-2-carboxamide], the IC50 under setting [1] was below 100 nM. The same measure, in the same setting: as for `CCN(C(=O)c1cc2ccccc2[nH]1)[C@H]1CCC[C@@H](NCc2cnn(C)c2)C1` [Compound 461], the figure is 500 to 2000 nM. As to `CCN(C(=O)c1cc2ncccc2[nH]1)[C@H]1CCC[C@@H](NCc2ccnc(O)c2)C1` [Compound 434], under setting [1], the IC50 was above 2000 nM.

Regarding `CCN(C(=O)c1cc2ncccc2[nH]1)[C@H]1CCC[C@@H](NCc2cc(C)on2)C1` [Compound 445], the IC50 under setting [1] lay in the range of 100 to 500 nM. Regarding `CCN(C(=O)c1cc2ncccc2[nH]1)[C@H]1CCC[C@@H](NCc2c[nH]cn2)C1` [Compound 447], under setting [1], the IC50 was 100 to 500 nM. Turning to `CCN(C(=O)c1nc2c(C#N)cccc2[nH]1)[C@H]1CCC[C@@H](NCc2ccccc2)C1` [Compound 481, N-((1S,3R)-3-(benzylamino)cyclohexyl)-4-cyano-N-ethyl-1H-benzo[d]imidazole-2-carboxamide], the IC50 under setting [1] was below 100 nM.

With `CCN(C(=O)c1cc2ccccc2[nH]1)[C@H]1CCC[C@@H](NCc2cccc(F)c2)C1` [Compound 106, N-ethyl-N-((1S,3R)-3-((3-fluorobenzyl)amino)cyclohexyl)-1H-indole-2-carboxamide], the IC50 (PC12 cells) is below 100 nM. For `CCN(C(=O)c1cc2cc(C#N)ccc2[nH]1)[C@H]1CCC[C@@H](NCc2cc3ccccc3o2)C1` [Compound 533], the half-inhibitory concentration (IC50) under setting [1] is below 100 nM. Regarding `CCN(C(=O)c1nc2cc(F)ccc2[nH]1)[C@H]1CCC[C@@H](NCc2cccc(F)c2)C1` [Compound 525], under setting [1], the IC50 is below 100 nM. As to `CCN(C(=O)c1cc2ccccc2[nH]1)[C@H]1CCC[C@H](NCc2cccc(F)c2)C1` [Compound 107, N-ethyl-N-((1S,3S)-3-((3-fluorobenzyl)amino)cyclohexyl)-1H-indole-2-carboxamide], under setting [1], the IC50 was 500 to 2000 nM. Still for that read-out and setting: with `CCN(C(=O)c1[nH]c2ccccc2c1C)[C@H]1CCC[C@@H](NCc2ccccc2)C1` [Compound 402] the figure was below 100 nM.
